The text below walks through data of article PMC5815522 (Bioorganic & medicinal chemistry, 2016).

The test system of one data set is CD3+ (resting T cells). Format: cell-based, human.
The conditions of data set [1]: in CH3OH, cited from earlier work.
For another data set, the system named is CD3+ (CD25+) cells. Format: cell-based, human.
The conditions of data set [2]: ± SD; cited from earlier work.
Data set [3] concerns HUT-78 cells. The experiment in a line: Uptake in presence and absence of verapamil by flow cytometry. As to conditions: 2 × 10^−7 M selenorhodamine, 1 × 10^−4 M VER, 1 h, mean ± SD. Format: cell-based, human. On the technique in general: Flow cytometry measures light scatter and fluorescence of single cells or particles in a stream.
The conditions of data set [4]: CH3OH, ± SD; cited from earlier work.
Data set [5] concerns CD3+ cells of SEB-stimulated PBMCs. Format: cell-based, human.
In data set [6] the test system is HUT-78 cells. The format is cell-based, human.
The conditions of data set [7]: in CH3OH; cited from earlier work.
In another data set the test system is Colo-26 cells. The conditions noted are these: P-gp-expressing Colo-26 cells; cited from earlier work.
In another data set the target is P-gp (Homo sapiens, UniProt P08183). The experiment in a line: P-gp transport studies across MDCKII-MDR1 monolayers.
[8] abbreviates: no inhibitor, 5 × 10^−6 M dye, 4.3 mg mL^−1 BSA, ± SD.
The mark [9] stands for this setting: with 5 × 10^−6 M inhibitor 15, 5 × 10^−6 M dye, 4.3 mg mL^−1 BSA, ± SD.

SMILES strings stand for the structures. Where “and” joins values, the source holds several entries; their conditions need not be identical. Equal entries are not always repeated.

Chain of P-gp (P08183 whole entry): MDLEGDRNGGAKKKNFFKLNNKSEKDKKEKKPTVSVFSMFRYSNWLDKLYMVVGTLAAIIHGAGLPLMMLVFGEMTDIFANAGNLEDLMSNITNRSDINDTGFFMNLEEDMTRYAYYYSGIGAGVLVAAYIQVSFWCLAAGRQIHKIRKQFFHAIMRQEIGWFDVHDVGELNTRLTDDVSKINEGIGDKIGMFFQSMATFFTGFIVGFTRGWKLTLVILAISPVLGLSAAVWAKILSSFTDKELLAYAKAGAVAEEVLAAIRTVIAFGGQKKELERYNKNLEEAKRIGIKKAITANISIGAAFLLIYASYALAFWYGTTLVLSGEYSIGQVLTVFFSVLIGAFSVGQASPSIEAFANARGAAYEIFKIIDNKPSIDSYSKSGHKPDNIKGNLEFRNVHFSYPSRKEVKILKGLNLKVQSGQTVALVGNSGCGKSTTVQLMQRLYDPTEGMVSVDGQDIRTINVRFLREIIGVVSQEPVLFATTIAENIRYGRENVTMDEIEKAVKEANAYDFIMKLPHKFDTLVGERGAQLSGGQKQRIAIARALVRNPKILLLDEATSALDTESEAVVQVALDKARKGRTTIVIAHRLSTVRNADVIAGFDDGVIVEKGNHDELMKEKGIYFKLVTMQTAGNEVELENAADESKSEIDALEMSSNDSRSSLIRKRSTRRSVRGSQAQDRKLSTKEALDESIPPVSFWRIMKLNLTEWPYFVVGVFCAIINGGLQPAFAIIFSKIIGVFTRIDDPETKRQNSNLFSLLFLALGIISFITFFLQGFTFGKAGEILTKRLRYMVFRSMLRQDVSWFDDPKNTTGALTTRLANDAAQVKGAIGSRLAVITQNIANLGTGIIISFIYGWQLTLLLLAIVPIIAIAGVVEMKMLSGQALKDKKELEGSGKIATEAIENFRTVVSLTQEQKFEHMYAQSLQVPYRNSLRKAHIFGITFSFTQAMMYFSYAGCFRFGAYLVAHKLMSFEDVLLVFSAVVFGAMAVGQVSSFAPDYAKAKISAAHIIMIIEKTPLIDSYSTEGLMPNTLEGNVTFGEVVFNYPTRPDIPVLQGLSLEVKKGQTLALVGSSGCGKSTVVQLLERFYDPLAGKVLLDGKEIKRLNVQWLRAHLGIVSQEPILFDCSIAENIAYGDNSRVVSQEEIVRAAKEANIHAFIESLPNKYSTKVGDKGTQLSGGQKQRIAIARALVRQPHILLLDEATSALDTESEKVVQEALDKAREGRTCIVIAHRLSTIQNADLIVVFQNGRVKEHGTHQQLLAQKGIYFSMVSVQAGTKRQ

For `O=C(c1ccc(C2=c3cc4c5c(c3[Se]c3c2cc2c6c3CCCN6CCC2)CCC[N+]=5CCC4)s1)N1CCCCC1.[Cl-]` [Compd 6, 9-(5-(piperidylcarbamoyl)thiophen-2-yl)-2,3,6,7,12,13,16,17-octa-hydro[1H,5H,11H,15H]-10-selenoxantheno-[2,3,4-ij:5,6,7-i′j′]diquinolizin-18-ium chloride], the “% survival of the CD3+, CD4+, and CD8+ populations” value in the data set with CD3+ (resting T cells) is listed as 62–78%. The “Quantum yield for fluorescence ΦFL” value in data set [1] (excitation at 532 nm, ± SD) was 0.012 ± 0.001. For the same molecule, the “Fluorescence emission maximum λFL” value in data set [1] was 660 nm. In addition, the “% survival CD3+ (CD25+)” value in the data set on CD3+ (CD25+) cells turned out to be 37.4 ± 3.2%. In [2], the “n-octanol/water partition coefficient log P” value was 3.71 ± 0.08. The “ratio of uptake +VER/−VER” value in the data set with HUT-78 cells [3] worked out at 1.13 ± 0.08. For the same molecule, the “Quantum yield for the generation of singlet oxygen Φ(1O2)” value in [4] was 0.64 ± 0.03. The “% survival CD3+” value in data set [5] worked out at 65%. Moreover, in the data set on HUT-78 cells [6], the “% of HUT-78 cells to which the photosensitizer was phototoxic” value was > 90% and 91%; the “% survival HUT-78” value came out at 9.3 ± 2.7%. In addition, in data set [7], the “Absorption maximum λmax” value was 626 nm and the “Molar extinction coefficient ε” value is 135000 M⁻¹ cm⁻¹. Further, the “ratio of uptake +VER/−VER” value in the data set on Colo-26 cells is given as 7.6. On P-gp (mean of PAB and PBA in the fully inhibited system), the PPassive is ~2 ×10^−9 m s^−1. Also, the PBA/PAB at P-gp (no inhibitor) is 37. At P-gp (setting [8]), the “PAB, transport in absorptive direction” value is on record as 2.1 ± 0.1 ×10^−9 m s^−1 and the “PBA, transport in secretory direction” value is given as 78 ×10^−9 m s^−1. On P-gp (setting [9]), the “PAB, transport in absorptive direction (+inh)” value is 0.24 ± 0.1 ×10^−9 m s^−1 and the “PBA, transport in secretory direction (+inh)” value is recorded as 4.8 ± 0.1 ×10^−9 m s^−1.
